Paper PMC9048848 (RSC Advances, 2020)

Target: T1, PTP1B (Homo sapiens, UniProt P18031)
T1 sequence (P18031 1-321): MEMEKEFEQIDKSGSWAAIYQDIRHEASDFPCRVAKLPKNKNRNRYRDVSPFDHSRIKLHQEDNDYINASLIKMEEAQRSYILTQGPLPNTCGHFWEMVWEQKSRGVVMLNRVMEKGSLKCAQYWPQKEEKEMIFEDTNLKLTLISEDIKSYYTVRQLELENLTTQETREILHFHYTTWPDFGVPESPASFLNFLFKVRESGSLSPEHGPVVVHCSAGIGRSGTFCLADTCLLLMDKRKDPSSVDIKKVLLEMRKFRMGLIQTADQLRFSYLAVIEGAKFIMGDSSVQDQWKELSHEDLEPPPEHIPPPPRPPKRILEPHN
Experiment: SPR
Assay type: binding

CCOCc1cc(O)c(O)c(Br)c1Cc1cc(O)c(O)c(Br)c1Br [BPN, 3,4-Dibromo-5-(2-bromo-6-(ethoxymethyl)-3,4-dihydroxybenzyl)benzene-1,2-diol]
Kd: 3.3 µM
